Laboratory results as given in patent US8163724B2, “Glucocorticosteroids, processes for their preparation, pharmaceutical compositions containing them and their use in therapy” (AstraZeneca AB, priority 2007, dated 2012).

These molecules were tested against T1, recombinant human GR (Homo sapiens, UniProt P04150) (assay: Human Glucocorticoid Receptor (GR) Assay (fluorescence polarization, Panvera/Invitrogen kit)). Conditions: not given.
T1 construct: purchased Panvera/Invitrogen P2812 (kit P2893)
T1 sequence (P04150 1-777): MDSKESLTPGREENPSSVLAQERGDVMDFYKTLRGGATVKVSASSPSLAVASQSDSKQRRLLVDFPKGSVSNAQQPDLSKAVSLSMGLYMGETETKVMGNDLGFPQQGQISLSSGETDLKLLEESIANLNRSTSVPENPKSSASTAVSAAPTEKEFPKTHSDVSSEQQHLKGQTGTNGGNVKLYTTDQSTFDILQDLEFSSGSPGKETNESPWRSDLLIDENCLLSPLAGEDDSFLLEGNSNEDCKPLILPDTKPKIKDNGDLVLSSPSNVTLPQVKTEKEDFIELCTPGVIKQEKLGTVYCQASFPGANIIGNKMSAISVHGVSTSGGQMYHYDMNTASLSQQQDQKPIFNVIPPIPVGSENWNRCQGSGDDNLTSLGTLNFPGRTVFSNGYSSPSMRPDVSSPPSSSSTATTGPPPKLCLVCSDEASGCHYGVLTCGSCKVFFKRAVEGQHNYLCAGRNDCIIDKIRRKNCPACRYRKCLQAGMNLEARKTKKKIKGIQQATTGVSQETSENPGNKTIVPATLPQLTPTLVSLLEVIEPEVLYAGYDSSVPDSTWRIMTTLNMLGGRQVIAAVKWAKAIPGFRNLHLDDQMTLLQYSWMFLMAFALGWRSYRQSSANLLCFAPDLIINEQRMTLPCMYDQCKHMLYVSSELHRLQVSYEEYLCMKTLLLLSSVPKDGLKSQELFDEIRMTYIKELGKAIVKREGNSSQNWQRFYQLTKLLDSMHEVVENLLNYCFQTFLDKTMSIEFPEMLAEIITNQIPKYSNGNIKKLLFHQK
Type: binding
Summary of the method: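 Fluorescence polarization competition with recombinant GR and GS Red fluorescent ligand plus stabilizing peptide and DTT in potassium phosphate/sodium molybdate/EDTA buffer with DMSO. Incubated 2 hours at room temperature in the dark; 0% control DMSO, 100% control 10 μM dexamethasone.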
With Cc1occc1C(=O)O[C@]1(C(=O)SCCO)CC[C@H]2[C@@H]3CCC4=Cc5c(cnn5-c5ccc(F)cc5)C[C@]4(C)[C@H]3[C@@H](O)C[C@@]21C [Example 55, (1R,3aS,3bS,10aR,10bS,11S,12aS)-7-(4-Fluorophenyl)-11-hydroxy-1-{[(2-hydroxy-ethyl)thio]carbonyl}-10a,12a-dimethyl-1,2,3,3a,3b,4,5,7,10,10a,10b,11,12,12a-tetradecahydrocyclopenta[5,6]naphtho[1,2-f]indazol-1-yl 2-methylfuran-3-carboxylate] the IC50 was 7 nM.

Same assay, conditions: fluorescence polarization; GS Red tracer; 2 hours at room temperature; 100% control 10 μM Dexamethasone; read-out: Inhibition of GR binding, IC50
For Cn1cc(C(=O)O[C@]2(C(=O)SCF)CC[C@H]3[C@@H]4CCC5=Cc6c(cnn6-c6ccc(F)cc6)C[C@]5(C)[C@H]4[C@@H](O)C[C@@]32C)nn1 [Example 48, (1R,3aS,3bS,10aR,10bS,11S,12aS)-1-{[(Fluoromethyl)thio]carbonyl}-7-(4-fluoro-phenyl)-11-hydroxy-10a,12a-dimethyl-1,2,3,3a,3b,4,5,7,10,10a,10b,11,12,12a-tetradecahydrocyclopenta[5,6]naphtho[1,2-f]indazol-1-yl 1-methyl-1H-1,2,3-triazole-4-carboxylate], the IC50 was 4.9 nM.
With Cn1cc(C(=O)O[C@]2(C(=O)SCCO)CC[C@H]3[C@@H]4CCC5=Cc6c(cnn6-c6ccc(F)cc6)C[C@]5(C)[C@H]4[C@@H](O)C[C@@]32C)nn1 [Example 49, (1R,3aS,3bS,10aR,10bS,11S,12aS)-7-(4-Fluorophenyl)-11-hydroxy-1-{[(2-hydroxy-ethyl)thio]carbonyl}-10a,12a-dimethyl-1,2,3,3a,3b,4,5,7,10,10a,10b,11,12,12a-tetradecahydrocyclopenta[5,6]naphtho[1,2-f]indazol-1-yl 1-methyl-1H-1,2,3-triazole-4-carboxylate] the IC50 was 3.5 nM.
With C[C@]12Cc3cnn(-c4ccc(F)cc4)c3C=C1CC[C@@H]1[C@@H]2[C@@H](O)C[C@@]2(C)[C@H]1CC[C@]2(OC(=O)c1ccoc1)C(=O)SCC#N [Example 50, (1R,3aS,3bS,10aR,10bS,11S,12aS)-1-{[(Cyanomethyl)thio]carbonyl}-7-(4-fluoro-phenyl)-11-hydroxy-10a,12a-dimethyl-1,2,3,3a,3b,4,5,7,10,10a,10b,11,12,12a-tetradecahydrocyclopenta[5,6]naphtho[1,2-f]indazol-1-yl furan-3-carboxylate] the IC50 was 5.8 nM.
With C[C@]12Cc3cnn(-c4ccc(F)cc4)c3C=C1CC[C@@H]1[C@@H]2[C@@H](O)C[C@@]2(C)[C@H]1CC[C@]2(OC(=O)c1ccoc1)C(=O)SCF [Example 51, (1R,3aS,3bS,10aR,10bS,11S,12aS)-1-{[(Fluoromethyl)thio]carbonyl}-7-(4-fluoro-phenyl)-11-hydroxy-10a,12a-dimethyl-1,2,3,3a,3b,4,5,7,10,10a,10b,11,12,12a-tetradecahydrocyclopenta[5,6]naphtho[1,2-f]indazol-1-yl furan-3-carboxylate] the IC50 was 6.9 nM.
C[C@]12Cc3cnn(-c4ccc(F)cc4)c3C=C1CC[C@@H]1[C@@H]2[C@@H](O)C[C@@]2(C)[C@H]1CC[C@]2(OC(=O)c1ccoc1)C(=O)SCCO [Example 52, (1R,3aS,3bS,10aR,10bS,11S,12aS)-7-(4-Fluorophenyl)-11-hydroxy-1-{[(2-hydroxy-ethyl)thio]carbonyl}-10a,12a-dimethyl-1,2,3,3a,3b,4,5,7,10,10a,10b,11,12,12a-tetradecahydrocyclopenta[5,6]naphtho[1,2-f]indazol-1-yl furan-3-carboxylate] showed an IC50 of 6.4 nM.
Work on Cc1occc1C(=O)O[C@]1(C(=O)SCC#N)CC[C@H]2[C@@H]3CCC4=Cc5c(cnn5-c5ccc(F)cc5)C[C@]4(C)[C@H]3[C@@H](O)C[C@@]21C [Example 53, (1R,3aS,3bS,10aR,10bS,11S,12aS)-1-{[(Cyanomethyl)sulfanyl]carbonyl}-7-(4-fluoro-phenyl)-11-hydroxy-10a,12a-dimethyl-1,2,3,3a,3b,4,5,7,10,10a,10b,11,12,12a-tetradecahydrocyclopenta[5,6]naphtho[1,2-f]indazol-1-yl 2-methylfuran-3-carboxylate] yielded an IC50 of 9 nM.
Cc1occc1C(=O)O[C@]1(C(=O)SCF)CC[C@H]2[C@@H]3CCC4=Cc5c(cnn5-c5ccc(F)cc5)C[C@]4(C)[C@H]3[C@@H](O)C[C@@]21C [Example 54, (1R,3aS,3bS,10aR,10bS,11S,12aS)-1-{[(Fluoromethyl)thio]carbonyl}-7-(4-fluorophenyl)-11-hydroxy-10a,12a-dimethyl-1,2,3,3a,3b,4,5,7,10,10a,10b,11,12,12a-tetradecahydropcyclopenta[5,6]naphtho[1,2]-indazol-1-yl 2-methylfuran-3-carboxylate] showed an IC50 of 7.3 nM.
Work on Cc1ccoc1C(=O)O[C@]1(C(=O)SCC#N)CC[C@H]2[C@@H]3CCC4=Cc5c(cnn5-c5ccc(F)cc5)C[C@]4(C)[C@H]3[C@@H](O)C[C@@]21C [Example 56, (1R,3aS,3bS,10aR,10bS,11S,12aS)-1-{[(Cyanomethyl)thio]carbonyl}-7-(4-fluorophenyl)-11-hydroxy-10a,12a-dimethyl-1,2,3,3a,3b,4,5,7,10,10a,10b,11,12,12a-tetradecahydropcyclopenta[5,6]naphtho[1,2-f]indazol-1-yl 3-methylfuran-2-carboxylate] yielded an IC50 of 6.5 nM.
Work on Cc1ccoc1C(=O)O[C@]1(C(=O)SCF)CC[C@H]2[C@@H]3CCC4=Cc5c(cnn5-c5ccc(F)cc5)C[C@]4(C)[C@H]3[C@@H](O)C[C@@]21C [Example 57, (1R,3aS,3bS,10aR,10bS,11S,12aS)-1-{[(Fluoromethyl)thio]carbonyl}-7-(4-fluorophenyl)-11-hydroxy-10a,12a-dimethyl-1,2,3,3a,3b,4,5,7,10,10a,10b,11,12,12a-tetradecaphydrocyclopenta[5,6]naphtho[1,2-f]indazol-1-yl 3-methylfuran-2-carboxylate] yielded an IC50 of 3.8 nM.
For Cc1ccoc1C(=O)O[C@]1(C(=O)SCCO)CC[C@H]2[C@@H]3CCC4=Cc5c(cnn5-c5ccc(F)cc5)C[C@]4(C)[C@H]3[C@@H](O)C[C@@]21C [Example 58, (1R,3aS,3bS,10aR,10bS,11S,12aS)-7-(4-Fluorophenyl)-11-hydroxy-1-{[(2-hydroxy-ethyl)thio]carbonyl}-10a,12a-dimethyl-1,2,3,3a,3b,4,5,7,10,10a,10b,11,12,12a-tetradecahydrocyclopenta[5,6]naphtho[1,2-f]indazol-1-yl 3-methylfuran-2-carboxylate], the IC50 was 5.5 nM.
With C[C@]12Cc3cnn(-c4ccc(F)cc4)c3C=C1CC[C@@H]1[C@@H]2[C@@H](O)C[C@@]2(C)[C@H]1CC[C@]2(OC(=O)c1ccno1)C(=O)SCC#N [Example 59, (1R,3aS,3bS,10aR,10bS,11S,12aS)-1-{[(Cyanomethyl)thio]carbonyl}-7-(4-fluorophenyl)-11-hydroxy-10a,12a-dimethyl-1,2,3,3a,3b,4,5,7,10,10a,10b,11,12,12a-tetradecahydropcyclopenta[5,6]naphtho[1,2-f]indazol-1-yl isoxazole-5-carboxylate] the IC50 was 3.9 nM.
C[C@]12Cc3cnn(-c4ccc(F)cc4)c3C=C1CC[C@@H]1[C@@H]2[C@@H](O)C[C@@]2(C)[C@H]1CC[C@]2(OC(=O)c1ccno1)C(=O)SCF [Example 60, (1R,3aS,3bS,10aR,10bS,11S,12aS)-1-{[(Fluoromethyl)thio]carbonyl}-7-(4-fluorophenyl)-11-hydroxy-10a,12a-dimethyl-1,2,3,3a,3b,4,5,7,10,10a,10b,11,12,12a-tetradecahydropcyclopenta[5,6]naphtho[1,2]-indazol-1-yl isoxazole-5-carboxylate] showed an IC50 of 4.5 nM.
For C[C@]12Cc3cnn(-c4ccc(F)cc4)c3C=C1CC[C@@H]1[C@@H]2[C@@H](O)C[C@@]2(C)[C@H]1CC[C@]2(OC(=O)c1ccno1)C(=O)SCCO [Example 61, (1R,3aS,3bS,10aR,10bS,11S,12aS)-7-(4-Fluorophenyl)-11-hydroxy-1-{[(2-hydroxy-ethyl)thio]carbonyl}-10a,12a-dimethyl-1,2,3,3a,3b,4,5,7,10,10a,10b. 1,12,12a-tetradecahydrocyclopenta[5,6]naphtho[1,2-f]indazol-1-yl isoxazole-5-carboxylate], the IC50 was 8.3 nM.
COCCC(=O)O[C@]1(C(=O)SCC#N)CC[C@H]2[C@@H]3CCC4=Cc5c(cnn5-c5ccc(F)cc5)C[C@]4(C)[C@H]3[C@@H](O)C[C@@]21C [Example 62, (1R,3aS,3bS,10aR,10bS,11S,12aS)-1-{[(Cyanomethyl)thio]carbonyl}-7-(4-fluorophenyl)-11-hydroxy-10a,12a-dimethyl-1,2,3,3a,3b,4,5,7,10,10a,10b,11,12,12a-tetradecahydrocyclopenta[5,6]naphtho[1,2-f]indazol-1-yl 3-methoxypropanoate] was tested, and the IC50 was 2.2 nM.
